This note sets out measurements from patent US9845297B2, “Antimicrobial compounds and methods of making and using the same” (Melinta Therapeutics, Inc., priority 2009, dated 2017).

The MIC is the smallest concentration in the dilution series that meets the test's criterion for growth inhibition.

Molecules are shown by their SMILES.

The subject of the first test is Eschericia coli strain ATCC25922. Kind of test: standard microdilution assay to determine minimum inhibitory concentrations (MICs). Type of test: cell-based. Conditions: Escherichia coli, ATCC25922, Eschericia coli strain ATCC25922, standard microdilution assay; read-out: E. coli ATCC25922 MIC. The protocol: Minimum inhibitory concentrations (MICs) are determined by the microdilution method, typically in a final volume of 100 microliters, according to protocols outlined by The Clinical and Laboratory Standards Institute [CLSI; formerly the National Committee for Clinical Laboratory Standards (NCCLS)]. See CLSI: Methods for dilution antimicrobial susceptibility tests for bacteria that grow aerobically; approved standard-fifth edition. Wayne, Pa.: NCCLS; 2000. The assays can be also be performed in microtiter trays according to conventional methodologies as published by the CLSI. See CLSI. Methods for Dilution Antimicrobial Susceptibility Tests for Bacteria That Grow Aerobically; Approved Standard-Seventh Edition. CLSI Document M7-A7 [ISBN 1-56238-587-9] CLSI, 940 West Valley Road, Suite 1400, Wayne Pa. 19087-1898 USA, 2006).
The compounds of the present invention were tested for antimicrobial activity. The compounds were run against Eschericia coli strain ATCC25922 using a standard microdilution assay to determine minimum inhibitory concentrations (MICs). […] A “N/A” means that data is unavailable. It will be recognized by one skilled in the art that the compounds can be assessed against other bacterial organisms and that the presentation of data for activity against Eschericia coli is illustrative and in no way is intended to limit the scope of the present invention. The compounds of the present invention can be assayed against a range of other microorganisms depending upon the performance activity desired to be gathered. Furthermore, the “+”, “−”, and “N/A” representation and the selection of a cutoff value of 16 micrograms/ml is also illustrative and in no way is intended to limit the scope of the present invention.
On the technique in general: Dilution methods test growth across graded concentrations, often in twofold steps.
On to `CN(C(=O)C[C@@H](N)CCCNC(=N)N)C1CNC(NC(N)=O)=NC1=O` (stereo partly drawn) [Compound 100], for which the minimum inhibitory concentration (MIC) is above 16 µg/mL.

For `CN(C(=O)C[C@H](CCCNC(=N)N)NC(=O)CCCN)C1CNC(NC(N)=O)=NC1=O` (stereo partly drawn) [Compound 102], the MIC is above 16 µg/mL. Same read-out and setting: as for `CN(C(=O)C[C@H](CCCNC(=N)N)NC(=O)CCN)C1CNC(NC(N)=O)=NC1=O` (stereo partly drawn) [Compound 103], the figure is above 16 µg/mL; as for `CN(C(=O)C[C@H](CCCNC(=N)N)NC(=O)CCO)C1CNC(NC(N)=O)=NC1=O` (stereo partly drawn) [Compound 104], above 16 µg/mL; as for `CN(C(=O)C[C@H](CCCNC(=N)N)NC(=N)N)C1CNC(NC(N)=O)=NC1=O` (stereo partly drawn) [Compound 105], above 16 µg/mL. On the same count and under the same terms, as for `CN(C(=O)C[C@H](CCCNC(=N)N)NCCCN)C1CNC(NC(N)=O)=NC1=O` (stereo partly drawn) [Compound 106], the figure is below 16 µg/mL; as for `CN(C(=O)C[C@H](CCCNC(=N)N)NC(=O)CCNC(=N)N)C1CNC(NC(N)=O)=NC1=O` (stereo partly drawn) [Compound 107], above 16 µg/mL. For the compound `CN(C(=O)C[C@H](CCCNC(=N)N)NC(=O)CCN1CCNCC1)C1CNC(NC(N)=O)=NC1=O` (stereo partly drawn) [Compound 108], the MIC was above 16 µg/mL. The same measure, in the same setting: next, `CN(C(=O)C[C@H](CCCNC(=N)N)NCCCCNC(=N)N)C1CNC(NC(N)=O)=NC1=O` (stereo partly drawn) [Compound 109]: below 16 µg/mL; `CN(C(=O)C[C@@H](N)CCCNC(=N)N)C1CNC(NC(=O)c2ccc(NC(=O)[C@@](C)(N)CO)cc2)=NC1=O` (stereo partly drawn) [Compound 110]: below 16 µg/mL. Same read-out and setting: next, `CN(C(=O)C[C@H](CCCNC(=N)N)NC(=O)CCc1c[nH]cn1)C1CNC(NC(N)=O)=NC1=O` (stereo partly drawn) [Compound 111]: above 16 µg/mL; `N=C(N)NCCC[C@H](N)CC(=O)N(CCCc1cocn1)C1CNC(NC(N)=O)=NC1=O` (stereo partly drawn) [Compound 112]: above 16 µg/mL. For `NCCC[C@H](N)CCCn1cnc(N)nc1=O` [Compound 113], the MIC was above 16 µg/mL. Turning to `N=C(N)NCCC[C@H](N)CCCn1cnc(N)nc1=O` [Compound 114], the MIC is above 16 µg/mL. The same measure, in the same setting: next, `NCCCC[C@@H](N)CCn1ccc(N)nc1=O` [Compound 115]: above 16 µg/mL; `NCCC[C@H](N)CCCn1ccc(N)nc1=O` [Compound 116]: above 16 µg/mL.

Take `N=C(N)NCCC[C@H](N)CCCn1ccc(N)nc1=O` [Compound 118]: the MIC is above 16 µg/mL. In the case of `Nc1ccn(CCC[C@@H](N)CCCOCc2ccccc2)c(=O)n1` [Compound 119], the MIC is above 16 µg/mL. Still for that read-out and setting: next, `N=C(N)NCCCCN[C@H](CCCCNC(=N)N)CCn1ccc(NC(N)=O)nc1=O` [Compound 120]: above 16 µg/mL. Same read-out and setting: next, `N=C(N)NCCC[C@H](N)CCCn1ccc(NC(N)=O)nc1=O` [Compound 121]: above 16 µg/mL; `NCCC[C@H](N)CCCn1ccc(NC(N)=O)nc1=O` [Compound 122]: above 16 µg/mL; `NC(=O)Nc1ccn(CCC[C@@H](N)CCCO)c(=O)n1` [Compound 123]: above 16 µg/mL. The same measure, in the same setting: next, `N=C(N)NCCCC[C@@H](N)CCn1ccc(NC(N)=O)nc1=O` [Compound 124]: above 16 µg/mL; `N=C(N)NCCCC[C@H](CCn1ccc(NC(N)=O)nc1=O)NCCCN` [Compound 125]: above 16 µg/mL. With `N=C(N)NCc1ccc(-n2ccc(NC(N)=O)nc2=O)cc1` [Compound 126], the MIC is above 16 µg/mL. The same measure, in the same setting: as for `N=C(N)NCc1ccc(-n2ccc(N)nc2=O)cc1` [Compound 127], the figure is above 16 µg/mL. The same measure, in the same setting: next, `NCCCCOc1nccc(N)n1` [Compound 128]: above 16 µg/mL. Same read-out and setting: as for `NCCCCn1ccc(N)nc1=O` [Compound 129], the figure is above 16 µg/mL; as for `N=C(N)NCCC[C@@H](CCCn1ccc(NC(N)=O)nc1=O)NCCCN` [Compound 130], above 16 µg/mL.

As for `NCCCNCc1ccc(-n2ccc(NC(N)=O)nc2=O)cc1` [Compound 131], the MIC was above 16 µg/mL.

As to `NCCCNCc1ccc(-n2ccc(N)nc2=O)cc1` [Compound 132], the MIC is above 16 µg/mL.

Turning to `N=C(N)NCCC[C@H](N)CCCn1cnc(NC(N)=O)nc1=O` [Compound 133], the MIC was above 16 µg/mL. The same measure, in the same setting: as for `N=C(N)NCCCCN[C@@H](CCCNC(=N)N)CCCn1ccc(NC(N)=O)nc1=O` [Compound 134], the figure is above 16 µg/mL; as for `NCCC[C@H](N)CCCN1CCC(NC(N)=O)NC1=O` (stereo partly drawn) [Compound 135], above 16 µg/mL; as for `NC(=O)NC1CCN(CCC[C@@H](N)CCCO)C(=O)N1` (stereo partly drawn) [Compound 136], above 16 µg/mL. For `NCCCNCc1ccc(-n2cc(F)c(N)nc2=O)cc1` [Compound 137], the MIC was above 16 µg/mL. The same measure, in the same setting: next, `NCCCNCc1ccc(-n2cc(F)c(NC(N)=O)nc2=O)cc1` [Compound 138]: above 16 µg/mL; `NCc1ccc(-n2ccc(NC(N)=O)nc2=O)cc1` [Compound 139]: above 16 µg/mL. `NCc1cn(-c2ccc(-n3cnc(NC(N)=O)nc3=O)cc2)nn1` [Compound 140]: the MIC is above 16 µg/mL.

Turning to `N=C(N)NCc1cn(-c2ccc(-n3ccc(NC(N)=O)nc3=O)cc2)nn1` [Compound 141], the MIC is above 16 µg/mL. For `NCCCN(CCCN)Cc1ccc(-n2cc(F)c(N)nc2=O)cc1` [Compound 143], the MIC was above 16 µg/mL.

For `NCCCNC(CCCN)c1ccc(-n2ccc(NC(N)=O)nc2=O)cc1` (stereo not drawn) [Compound 144], the MIC was above 16 µg/mL. On the same count and under the same terms, next, `NCCCN(CCCN)Cc1ccc(-n2ccc(NC(N)=O)nc2=O)cc1` [Compound 145]: above 16 µg/mL; `NCCCC(N)c1ccc(-n2ccc(NC(N)=O)nc2=O)cc1` (stereo not drawn) [Compound 146]: above 16 µg/mL.

As for `N=C(N)NCCC[C@@H](CCCn1ccc(NC(=O)NS(=O)(=O)c2ccc(F)cc2)nc1=O)NCCCN` [Compound 147], the MIC was above 16 µg/mL. With `N=C(N)NCCC[C@@H](CCCn1ccc(NC(=O)Nc2ccc(F)cc2)nc1=O)NCCCN` [Compound 148], the MIC is above 16 µg/mL. Regarding `NCCCN(CCCN)Cc1ccc(-c2c[nH]c(NC(N)=O)nc2=O)cc1` [Compound 149], the MIC is above 16 µg/mL. Same read-out and setting: as for `NC[C@@H](N)c1cn(-c2ccc(-n3ccc(NC(N)=O)nc3=O)cc2)nn1` [Compound 150], the figure is above 16 µg/mL. For `Cc1nc(-c2cccc(NC(=O)Nc3ccn(CCC[C@H](CCCNC(=N)N)NCCCN)c(=O)n3)c2)no1` [Compound 151], the MIC is above 16 µg/mL.

On to `CN(C)c1ccc(NC(=O)Nc2ccn(CCC[C@H](CCCNC(=N)N)NCCCN)c(=O)n2)cc1` [Compound 152], for which the MIC is above 16 µg/mL. Take `NCCN(CCN)CCCN1CC=C(n2ccc(NC(N)=O)nc2=O)CC1` [Compound 153]: the MIC is above 16 µg/mL. On the same count and under the same terms, next, `N=C(N)NCCC[C@@H](CCCn1ccc(NC(=O)c2ccc(Cl)cc2)nc1=O)NCCCN` [Compound 155]: above 16 µg/mL; `N=C(N)NCC(NCCCN)c1ccc(-n2ccc(NC(N)=O)nc2=O)cc1` (stereo not drawn) [Compound 156]: above 16 µg/mL; `Cn1nnc2cc(C(=O)Nc3ccn(CCC[C@H](CCCNC(=N)N)NCCCN)c(=O)n3)ccc21` [Compound 157]: above 16 µg/mL. Still for that read-out and setting: as for `Cc1c(C(=O)Nc2ccn(CCC[C@H](CCCNC(=N)N)NCCCN)c(=O)n2)ccn1-c1ccc(Cl)cc1` [Compound 158], the figure is above 16 µg/mL; as for `N=C(N)NCCC[C@@H](CCCn1ccc(NC(=O)Nc2ccc(F)cc2F)nc1=O)NCCCN` [Compound 159], above 16 µg/mL.

Staying with this test, now noted: Escherichia coli, ATCC25922, read-out: E. coli ATCC25922 MIC.
As for `CN(C(=O)C[C@H](CCCNC(=N)N)NC(=O)CCCO)C1CNC(NC(N)=O)=NC1=O` (stereo partly drawn) [Compound 101], the MIC was above 16 µg/mL.
